Laboratory results from ChEMBL document CHEMBL1641416, “2-Arylbenzoxazoles as CETP inhibitors: raising HDL-C in cynoCETP transgenic mice” (Bioorg Med Chem Lett, 2011).

Legend:
in vivo [1] = settings: mouse
Description: Clearance in wild type mouse

in vivo [2] = settings: mouse; remark: listed apart in the source
Description: Half life in wild type mouse

in vivo [3] = settings: mouse, po
Description: Oral bioavailability in wild type mouse

- clearance (in vivo [1]): 25 mL/min/kg
- half-life (in vivo [2]): 246 min
- bioavailability (in vivo [3]): 56%
Structure (SMILES): Cc1cc(C#N)cc2nc(-c3ccc(NC(=O)CN4CCN(c5ccc(C(F)(F)F)cc5)CC4)cc3)oc12
